Data from patent publication US20150118229A1, “JAK1 SELECTIVE INHIBITOR AND USES THEREOF” (ABBVIE INC., priority 2013, published 2015).
Where “and” joins values, the source holds several entries; their conditions need not be identical. Equal values may be shown once. Entries after “also recorded” stand apart in the source; their conditions may differ. Read-outs that look alike come from different tables or passages of the source.

Assays:
CYP2B6 = test: CYP induction (mRNA) in human hepatocytes, CYP2B6; assay type: in vitro ADME
CYP1A2 = CYP1A2 (Homo sapiens, UniProt P05177); test: CYP inhibition in human liver microsomes, CYP1A2
[1] = Pharmacokinetics in monkey; assay type: in vivo; settings: for Vd: read-out: Vss
[2] = Metabolic stability in liver microsomes, human; assay type: in vitro ADME; settings: read-out: intrinsic clearance in liver microsomes (converted)
[3] = dog, in vivo
OAT3 = OAT3 (Homo sapiens, UniProt Q8TCC7); test: Transporter inhibition, OAT3
[4] = tested on: peripheral NK, NKT cells, circulating reticulocytes; test: NK, NKT cell and reticulocyte counts in healthy human subjects dosed bid for 14 days; assay type: in vivo; settings: 3, 6, 12, 24 mg bid 14 days
Description: The following procedure is provided to illustrate a method of counting TBNK cells from a blood sample, such as one collected from a human subject orally dosed with a compound of the invention. The method (including the type of instruments and reagents used) as described herein in is non-limiting, as minor variations to the procedure and equivalent instruments and reagents can be readily envisioned.
Specifically, a blood sample is collected into 3 mL lavender K2 EDTA Vacutainer at specified time points and tubes mixed. Samples are shipped to analysis facility at ambient temperature overnight, and sample analysis is preferably done on the day received.
Two BD Trucount tubes (BD Biosciences, cat #340334) are used per sample and labeled with sample number followed by A or B. Two tubes are also set up for the BD Multi-Check Control (BD Biosciences, cat #340911) that is a stabilized blood sample used as an inter-run control each time samples are analyzed. […]
For NKT cell determination, cell numbers are determined by using FlowJo and looking at the CD3^+/CD16^+/CD56^+ population. The number of cells/μL is calculated by using the following equation: (the number of events in cell population/the number of events in absolute bead count region)×(the number of beads per test*/test volume). *This value is found on BD Trucount tube label.

[5] = Plasma protein binding, dog; assay type: in vitro ADME
[6] = Metabolic stability in liver microsomes, rat; assay type: in vitro ADME; settings: read-out: intrinsic clearance in liver microsomes (scaled) (converted)
[7] = Definitive embryofetal development toxicity study in rats; assay type: in vivo; settings: rat
Excerpt: One additional group of 25 time-mated females served as the control and received the vehicle, 0.2% hydroxypropyl methylcellulose (HPMC, high viscosity) in deionized water.

IL-6 signaling = test: Whole blood assay IL-6 pSTAT3 CD14+; assay type: cell-based
CYP2D6 = CYP2D6 (Homo sapiens, UniProt P10635); test: Metabolism by recombinant CYP2D6; assay type: in vitro ADME; parameters: from tissue; host or cells: human liver microsomes
Excerpt: In vitro biotransformation of Compound 1 primarily occurred at imidazolpyrrolopyrazinyl ethyl pyrrolidine moiety.

in vivo = settings: both, rat, po
Description: The 4-week rat study was conducted at dose levels of 0, 10, 50, 100, and 200 mg/kg/day by daily oral administration (gavage). […] The cause of death was not determined for animals that died.

[8] = Metabolic stability in hepatocytes, dog; assay type: in vitro ADME; settings: read-out: intrinsic clearance in hepatocytes (converted)
[9] = Metabolic stability in hepatocytes, monkey; assay type: in vitro ADME; settings: read-out: intrinsic clearance in hepatocytes (converted)
[10] = Pivotal 4-week GLP oral toxicity study in dogs; assay type: in vivo, beagle dogs
Excerpt: (§1) The GLP-compliant studies each included 4 weeks of oral dosing followed by a 4-week recovery period in both rats and dogs followed by GLP-compliant chronic toxicity studies in rats (6 months of oral dosing) and dogs (9 months of oral dosing).

[11] = 9-month (39 weeks) GLP chronic oral toxicity study in dogs; settings: both sexes, beagle, in vivo, dog, 9 months (39 weeks)
Description: as §1
A subsequent GLP-compliant 9-month chronic dog study was conducted in beagle dogs at dosages of 0, 0.1, 0.5, and 1.5 mg/kg/day by daily oral capsule administration. No Compound 1-related changes in food consumption or body weights were observed during the dosing period.

[12] = Clinical safety, Study M13-401
[13] = plasma, oral 1 mg/kg single dose, mean (SD)
[14] = plasma, oral 10 mg/kg single dose, mean (SD)

Sequence of CYP1A2 (P05177 whole entry): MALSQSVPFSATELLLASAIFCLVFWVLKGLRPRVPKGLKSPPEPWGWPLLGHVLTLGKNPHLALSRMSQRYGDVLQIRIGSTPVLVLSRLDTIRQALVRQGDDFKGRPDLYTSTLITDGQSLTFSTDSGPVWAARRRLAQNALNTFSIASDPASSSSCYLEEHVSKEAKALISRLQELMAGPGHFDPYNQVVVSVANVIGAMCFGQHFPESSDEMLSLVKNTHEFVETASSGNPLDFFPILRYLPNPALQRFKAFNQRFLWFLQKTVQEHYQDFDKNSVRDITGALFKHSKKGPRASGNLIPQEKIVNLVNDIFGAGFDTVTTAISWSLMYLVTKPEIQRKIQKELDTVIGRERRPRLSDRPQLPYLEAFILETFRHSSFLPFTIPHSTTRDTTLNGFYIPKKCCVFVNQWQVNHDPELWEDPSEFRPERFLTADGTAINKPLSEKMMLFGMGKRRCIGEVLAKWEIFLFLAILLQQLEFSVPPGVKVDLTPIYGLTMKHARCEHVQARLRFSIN
Sequence of CYP2D6 (P10635 whole entry): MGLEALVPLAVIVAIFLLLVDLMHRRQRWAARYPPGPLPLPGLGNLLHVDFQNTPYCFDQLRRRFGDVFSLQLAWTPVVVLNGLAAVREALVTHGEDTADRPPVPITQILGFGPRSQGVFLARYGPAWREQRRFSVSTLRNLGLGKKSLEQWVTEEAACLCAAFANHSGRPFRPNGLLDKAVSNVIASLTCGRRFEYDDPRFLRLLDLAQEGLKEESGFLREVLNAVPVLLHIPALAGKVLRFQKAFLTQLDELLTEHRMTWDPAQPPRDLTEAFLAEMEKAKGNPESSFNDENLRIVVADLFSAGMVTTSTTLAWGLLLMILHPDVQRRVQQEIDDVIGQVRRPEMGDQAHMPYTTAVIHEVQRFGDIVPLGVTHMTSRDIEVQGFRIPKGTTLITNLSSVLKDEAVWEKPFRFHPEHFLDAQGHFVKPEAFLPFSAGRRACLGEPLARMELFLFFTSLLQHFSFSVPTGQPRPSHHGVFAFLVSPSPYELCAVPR
Sequence of OAT3 (Q8TCC7 whole entry): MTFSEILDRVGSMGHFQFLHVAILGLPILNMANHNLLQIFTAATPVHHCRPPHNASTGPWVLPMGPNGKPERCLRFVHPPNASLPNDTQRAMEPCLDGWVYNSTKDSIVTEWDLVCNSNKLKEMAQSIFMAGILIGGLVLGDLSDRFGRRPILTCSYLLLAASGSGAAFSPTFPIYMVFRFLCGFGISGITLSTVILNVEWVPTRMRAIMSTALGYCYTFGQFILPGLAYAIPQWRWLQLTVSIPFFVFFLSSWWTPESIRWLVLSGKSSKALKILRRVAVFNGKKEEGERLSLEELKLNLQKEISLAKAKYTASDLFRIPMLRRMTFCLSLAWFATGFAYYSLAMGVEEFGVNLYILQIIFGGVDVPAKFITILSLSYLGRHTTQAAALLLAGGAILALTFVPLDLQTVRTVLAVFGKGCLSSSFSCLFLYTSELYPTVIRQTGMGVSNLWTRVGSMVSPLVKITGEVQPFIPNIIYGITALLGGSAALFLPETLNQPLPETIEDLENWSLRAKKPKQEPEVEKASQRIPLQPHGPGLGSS

In the case of `CC[C@@H]1CN(C(=O)NCC(F)(F)F)C[C@@H]1c1cnc2cnc3[nH]ccc3n12` [Compound 1, (3S,4R)-3-ethyl-4-(3H-imidazo[1,2-a]pyrrolo[2,3-e]pyrazin-8-yl)-N-(2,2,2-trifluoroethyl)pyrrolidine-1-carboxamide], the “CYP2B6 mRNA expression, % of the response of phenobarbital” value (CYP2B6; 10 μM) is reported as 25%, the “mRNA expression of CYP2B6” value (CYP2B6; 1 and 3 μM) is reported as “did not increase” and the “time-dependent inhibition of CYP1A2” value (CYP1A2; human liver microsomes) is reported as “No obvious time-dependent inhibition”. The “inhibition of CYP1A2” value (CYP1A2; up to 30 μM) was “did not inhibit; also recorded: not an inhibitor”, the Vc ([1]; IV 0.1 mg/kg single dose) was 1.2 L/kg and the Vβ ([1]; IV 0.1 mg/kg single dose) was 2.2 L/kg. For the same compound, the Vc ([1]; IV 1.0 mg/kg single dose) was 1.0 L/kg, the Vβ ([1]; IV 1.0 mg/kg single dose) was 2.2 L/kg and the F ([1]; oral 1 mg/kg single dose, mean (SD), 1 mg/kg) was 59.3% and 59.3 (18.1) %. The F ([1]; oral 10 mg/kg single dose, mean (SD)) was 52.3 (12.4) %, the AUC(0-inf) ([1]; plasma, IV 0.1 mg/kg single dose, mean (SD)) was 72 ng·h/mL and the clearance ([1]; plasma, IV 0.1 mg/kg single dose, mean (SD), read-out: CLp (converted)) was 23.3 mL/min/kg. It also gave a Vd ([1]; plasma, IV 0.1 mg/kg single dose) of 1.9 L/kg, a half-life ([1]; plasma, IV 0.1 mg/kg single dose, read-out: t1/2 (converted)) of 1.1 h and an AUC(0-inf) ([1]; plasma, IV 1.0 mg/kg single dose, mean (SD)) of 947 ng·h/mL. The clearance ([1]; plasma, IV 1.0 mg/kg single dose, mean (SD), read-out: CLp (converted)) was 20 mL/min/kg, the Vd ([1]; plasma, IV 1.0 mg/kg single dose) was 1.6 L/kg and the half-life ([1]; plasma, IV 1.0 mg/kg single dose, read-out: t1/2 (converted)) was 1.3 h. The clearance ([1]; plasma, IV, read-out: clearance (converted)) was 21.7 mL/min/kg, the half-life ([1]; plasma, IV, read-out: plasma elimination t½ (converted)) was 1.2 h and the AUC(0-inf) [1, 13] was 562 ng·h/mL. For the same compound, the Cmax [1, 13] was 134 ng/mL, the AUC(0-inf) [1, 14] was 4950 ng·h/mL and the Cmax [1, 14] was 960 ng/mL. The Tmax [1, 14] was 4.3 h, the CLint scaled at 0.5 μM [2] was 31.2 mL/min/kg and the “AUC lower in fed than fasted animals” value [3] was “approximately 40%”. For the same compound, the “Cmax lower in fed than fasted animals” value [3] was “approximately 3 fold”, the Vc ([3]; iv, 1 mg/kg) was 1.9 L/kg and the Vβ ([3]; iv, 1 mg/kg) was 2.9 L/kg. For the same compound, the F ([3]; po, 5 mg/kg) was 65.8 (12.1) %, the IC50 (OAT3) was 43000 nM and the “peripheral NK or NKT cell counts per μL” value [4] was “only at 12 and 24 mg”. For the same compound, the reticulocyte counts [4] was “does not dose dependently reduce reticulocyte counts”, the fraction unbound [5] was 0.82 and the CLint scaled at 0.5 μM [6] was 84.7 mL/min/kg. For the same compound, the “maternal clinical observations, body weights, food consumption, macroscopic examinations” value ([7]; GD 6 to 17) was “No Compound 1-related effects”, the NOEL ([7]; oral, GD 6-17) was “NOEL < 5 mg/kg/day” and the IC50 (IL-6 signaling; read-out: IL-6 (pSTAT3, CD14+)) was 17 nM. The IC50 (IL-6 signaling; whole blood, read-out: IC50 IL-6 pSTAT3 CD14+) was 17 nM, the “percentage of parent remaining” value (CYP2D6) was 73.4% and the NOAEL at 4 weeks (in vivo) was 50 mg/kg/day. For the same compound, the CLint scaled at 1 μM [8] was 6.92 mL/min/kg, the CLint scaled at 1 μM [9] was 6.88 mL/min/kg and the NOAEL at 4 weeks ([10]; both sexes, beagle, in vivo, dog, 4 weeks GLP, oral capsule) was 1.5 mg/kg/day. The AUC(0-t) ([10]; both, beagle, plasma, oral, dog 1.5 mg/kg/day, males and females combined, read-out: AUC0-24 at NOAEL) was 1200 ng·h/mL, the “decreases in red cell mass (up to)” value ([10]; dog, 3 mg/kg/day) was −23% and the “decreases in circulating lymphocytes compared with baseline” value ([10]; dog, 5 mg/kg/day) was −20% to −37%. The “decreases in red cell mass (up to)” value ([10]; dog, 5 mg/kg/day) was −32%, the “Adverse Findings” value ([10]; dog, 4 weeks GLP, leading number = dose mg/kg/day) was “≧3: Popliteal lymph” and the NOAEL at 9 months [11] was 1.5 mg/kg/day. For the same compound, the “effects on blood pressure and heart rate” value ([12]; FIH study, through highest single dose of 48 mg) was “no effects”, the “subjects meeting predefined criteria for potentially clinically significant QT or QTcF interval” value ([12]; Study M13-401) was “No subjects” and the “adverse events severe, serious, or fatal” value ([12]; Study M13-401 Substudy 1 and 2) was “None”. The dose-limiting toxicities ([12]; healthy volunteers, single doses 1 to 48 mg and 3, 6, 12, 24 mg twice daily 14 days) was “no dose-limiting toxicities”.
